Experimental data reported in PubChem BioAssay AID1963965 (Molecular Pharmacology Branch, DTP, NCI, 2024).

Test system: 996289-038-R-J1-PDC spheroid viability
Assay: Anticancer human tumor 996289-038-R-J1-PDC patient-derived colon adenocarcinoma cell line growth inhibition [PI3K]
Details: spheroids with HUVEC and MSC; for IC50: curve of first compound; for viability, T/C: stronger effect = lower value; active = viability on the fitted dose curve at most 10% of control; inactive = the rest
Summary of the method: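 Multi-cell spheroids combine tumor cells with HUVEC and human MSCs, treated with targeted agents alone or with inavolisib, alpelisib, duvelisib or copanlisib. Concentrations fall in half-log steps from at or near clinical Cmax, or from 10 microM where Cmax is unknown; viability read-out.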

[1] = second compound 0.0316 µM, first compound 0.0316 µM
[2] = second compound 0.0316 µM, first compound 0.1 µM
[3] = second compound 0.0316 µM, first compound 0.316 µM
[4] = second compound 0.0316 µM, first compound 1 µM
[5] = second compound 0.0316 µM, first compound 3.16 µM
[6] = second compound 0.0316 µM, first compound 10 µM
[7] = second compound 0.1 µM, first compound 0.0316 µM
[8] = second compound 0.1 µM, first compound 0.1 µM
[9] = second compound 0.1 µM, first compound 0.316 µM
[10] = second compound 0.1 µM, first compound 1 µM
[11] = second compound 0.1 µM, first compound 3.16 µM
[12] = second compound 0.1 µM, first compound 10 µM
[13] = second compound 0.316 µM, first compound 0.0316 µM
[14] = second compound 0.316 µM, first compound 0.1 µM
[15] = second compound 0.316 µM, first compound 0.316 µM
[16] = second compound 0.316 µM, first compound 1 µM
[17] = second compound 0.316 µM, first compound 3.16 µM
[18] = second compound 0.316 µM, first compound 10 µM
[19] = second compound 1 µM, first compound 0.0316 µM
[20] = second compound 1 µM, first compound 0.1 µM
[21] = second compound 1 µM, first compound 0.316 µM
[22] = second compound 1 µM, first compound 1 µM
[23] = second compound 1 µM, first compound 3.16 µM
[24] = second compound 1 µM, first compound 10 µM
[25] = second compound 3.16 µM, first compound 0.0316 µM
[26] = second compound 3.16 µM, first compound 0.1 µM
[27] = second compound 3.16 µM, first compound 0.316 µM
[28] = second compound 3.16 µM, first compound 1 µM
[29] = second compound 3.16 µM, first compound 3.16 µM
[30] = second compound 3.16 µM, first compound 10 µM
[31] = second compound 10 µM, first compound 0.0316 µM
[32] = second compound 10 µM, first compound 0.1 µM
[33] = second compound 10 µM, first compound 0.316 µM
[34] = second compound 10 µM, first compound 1 µM
[35] = second compound 10 µM, first compound 3.16 µM
[36] = second compound 10 µM, first compound 10 µM
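Note: spheroids exposed to compounds for seven days before viability read.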
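Throughout, for viability, T/C: luminescence used as a proxy for viable cell amount; percent viability relative to DMSO vehicle control as 100%.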

C=CC(=O)N1CCN(c2nc(=O)n(-c3c(C)ccnc3C(C)C)c3nc(-c4c(O)cccc4F)c(F)cc23)C(C)C1 (stereo unspecified) + Cc1nc(NC(=O)N2CCCC2C(N)=O)sc1-c1ccnc(C(C)(C)C(F)(F)F)c1
> 10 µM: IC50 (second compound 0.0316 µM) | IC50 (second compound 0.1 µM) | IC50 (second compound 0.316 µM) | IC50 (second compound 1 µM) | IC50 (second compound 3.16 µM)
inactive: viability, T/C [1] 91.4% | viability, T/C [2] 107% | viability, T/C [3] 111% | viability, T/C [4] 116% | viability, T/C [5] 115% | viability, T/C [6] 114% | viability, T/C [7] 87.5% | viability, T/C [8] 90.4% | viability, T/C [9] 90.5% | viability, T/C [10] 96.7% | viability, T/C [11] 122% | viability, T/C [12] 93.5% | viability, T/C [13] 79.8% | viability, T/C [14] 95.2% | viability, T/C [15] 94.7% | viability, T/C [16] 83.6% | viability, T/C [17] 97.5% | viability, T/C [18] 89.9% | viability, T/C [19] 88.6% | viability, T/C [20] 85.8% | viability, T/C [21] 75.6% | viability, T/C [22] 87.5% | viability, T/C [23] 77.6% | viability, T/C [24] 80.1% | viability, T/C [25] 59.5% | viability, T/C [26] 71.7% | viability, T/C [27] 74.7% | viability, T/C [28] 61.6% | viability, T/C [29] 64.4% | viability, T/C [30] 59.5% | viability, T/C [31] 50.5% | viability, T/C [32] 50.7% | viability, T/C [33] 43.2% | viability, T/C [34] 40.6% | viability, T/C [35] 48.8% | viability, T/C [36] 47.4%
0.0454 µM: IC50 (second compound 10 µM)

CC(Cn1ccc(-c2ccc(C#N)c(Cl)c2)n1)NC(=O)c1cc(C(C)O)[nH]n1 (stereo unspecified) + Cc1nc(NC(=O)N2CCCC2C(N)=O)sc1-c1ccnc(C(C)(C)C(F)(F)F)c1
< 0.0316 µM: IC50 (second compound 10 µM)
> 10 µM: IC50 (second compound 0.0316 µM) | IC50 (second compound 0.1 µM) | IC50 (second compound 0.316 µM) | IC50 (second compound 1 µM) | IC50 (second compound 3.16 µM)
inactive: viability, T/C [1] 84% | viability, T/C [2] 86.7% | viability, T/C [3] 95.2% | viability, T/C [4] 109% | viability, T/C [5] 98.9% | viability, T/C [6] 91.8% | viability, T/C [7] 96.6% | viability, T/C [8] 89.7% | viability, T/C [9] 97.8% | viability, T/C [10] 94.4% | viability, T/C [11] 92.4% | viability, T/C [12] 92.3% | viability, T/C [13] 95.8% | viability, T/C [14] 85.3% | viability, T/C [15] 85% | viability, T/C [16] 77.3% | viability, T/C [17] 78.3% | viability, T/C [18] 85.3% | viability, T/C [19] 68.8% | viability, T/C [20] 82.4% | viability, T/C [21] 80.9% | viability, T/C [22] 89.9% | viability, T/C [23] 77% | viability, T/C [24] 69.3% | viability, T/C [25] 58.5% | viability, T/C [26] 55.8% | viability, T/C [27] 66.6% | viability, T/C [28] 66.7% | viability, T/C [29] 72.7% | viability, T/C [30] 50.9% | viability, T/C [31] 49% | viability, T/C [32] 43.1% | viability, T/C [33] 48.9% | viability, T/C [34] 42.3% | viability, T/C [35] 43.1% | viability, T/C [36] 46.4%

Cn1nccc1Nc1nccc(-c2ccn(C(CO)c3ccc(Cl)c(F)c3)c(=O)c2)n1 (stereo unspecified) + Cc1nc(NC(=O)N2CCCC2C(N)=O)sc1-c1ccnc(C(C)(C)C(F)(F)F)c1
3.53 µM: IC50 (second compound 1 µM)
> 10 µM: IC50 (second compound 0.0316 µM) | IC50 (second compound 0.1 µM) | IC50 (second compound 0.316 µM)
3.56 µM: IC50 (second compound 3.16 µM)
inactive: viability, T/C [1] 106% | viability, T/C [2] 114% | viability, T/C [3] 108% | viability, T/C [4] 85.8% | viability, T/C [5] 97% | viability, T/C [6] 55.2% | viability, T/C [7] 107% | viability, T/C [8] 96.8% | viability, T/C [9] 101% | viability, T/C [10] 85.6% | viability, T/C [11] 70.2% | viability, T/C [12] 52.1% | viability, T/C [13] 92.5% | viability, T/C [14] 84.5% | viability, T/C [15] 101% | viability, T/C [16] 72.7% | viability, T/C [17] 61.4% | viability, T/C [18] 49.5% | viability, T/C [19] 76.8% | viability, T/C [20] 90% | viability, T/C [21] 72.5% | viability, T/C [22] 62% | viability, T/C [23] 54.1% | viability, T/C [24] 38.8% | viability, T/C [25] 54.8% | viability, T/C [26] 57.4% | viability, T/C [27] 63% | viability, T/C [28] 54.9% | viability, T/C [29] 52.9% | viability, T/C [30] 27.1% | viability, T/C [31] 44.7% | viability, T/C [32] 40.6% | viability, T/C [33] 57.9% | viability, T/C [34] 34.7% | viability, T/C [35] 29.4% | viability, T/C [36] 15.7%
< 0.0316 µM: IC50 (second compound 10 µM)
